According to patent publication US20080214563A1, “Benzimidazole Thiophene Compounds As Plk Modulators” (priority 2005, published 2008):

Experiments:
HCT-116 = assay: Cell-Titer Glo Cell Growth Inhibition Assay, HCT116; type: cell-based; conditions: Homo sapiens, CellTiter-Glo, 72 h, read-out: CTG HCT116 IC50
Method: (§1) A549-L (human lung), BT474 (human breast), Colo 205 (human colon), H1299 (human lung), Hela (human cervix), HCT-116 (human colon), HN5 (human head and neck), HT29 (human colon), LNCap (human prostate), MCF7 (human breast), MDA-MB468 (human breast), MX-1 (human breast), RPMI 8226 (human peripheral blood), SKOV3 (human ovary) and P388 (murine leukemia) cell lines were cultured in RPMI1640 containing 10% fetal bovine serum at 37° C. in a 5% CO2 incubator. Cell lines were split into T75 flasks (Falcon #353136) two to three days prior to assay set up at density which yields approximately 70-80% confluency at time of harvest for assay. Cells were harvested using 0.25% trypsin with EDTA (Glibco/Invitrogen #25200-056), Cell counts were performed on cell suspensions using Trypan Blue exclusion staining, cells were then plated in 105 uL of culture media per well at the following densities in 96 well Costar #3916 black flat bottom plates: All human cell lines were plated at 500 cells/well. P388 were plated at 250 cells/well. All plates were placed at 5% CO2 37° C. overnight and then test compounds were added the following day. One plate of each cell type is treated with CellTiter-Glo (Promega #G7573) for a day 0 proliferation measurement and read as described below. The test compounds are prepared in clear U bottom polypropylene 96 well plates (Falcon #35-1190 with consecutive two fold dilutions. 9 uL of these dilutions was added into each well of the cell plates. The final concentration of DMSO in all wells is 0.15%. Cells were incubated at 37° C., 5% CO2 for 72 h. Following 72 h of incubation with compounds each plate was developed and read. CellTiter-Glo reagent was added to assay plates using a volume equivalent to the cell culture volume in the wells. Plates were shaken for approximately two minutes and incubated at room temperature for approximately 15 min and the chemiluminescent signal is read on the Victor V or Envison 2100 reader. […] Concentration of compound that inhibited 50% of cell growth (IC50) was analysis by 4 or 6 parameter fit of data using XLfit, value of no cell addition was subtracted from all samples for background.

Colo 205 = assay: Cell-Titer Glo Cell Growth Inhibition Assay, COLO205; type: cell-based; conditions: Homo sapiens, CellTiter-Glo, 72 h, read-out: CTG COLO205 IC50
Method: as §1

P388 = assay: Cell-Titer Glo Cell Growth Inhibition Assay, P388; type: cell-based, murine; conditions: Mus musculus, CellTiter-Glo, 72 h, read-out: CTG P388 IC50
Method: as §1

A549-L = assay: Cell-Titer Glo Cell Growth Inhibition Assay, A549-L; type: cell-based; conditions: Homo sapiens, CellTiter-Glo, 72 h, read-out: CTG A549-L IC50
Method: as §1

HT29 = assay: Cell-Titer Glo Cell Growth Inhibition Assay, HT29; type: cell-based; conditions: Homo sapiens, HT-29, CellTiter-Glo, 72 h, read-out: CTG HT29 IC50
Method: as §1

SKOV3 = assay: Cell-Titer Glo Cell Growth Inhibition Assay, SKOV-3; type: cell-based; conditions: Homo sapiens, SK-OV-3, CellTiter-Glo, 72 h, read-out: CTG SKOV-3 IC50
Method: as §1

MX-1 = assay: Cell-Titer Glo Cell Growth Inhibition Assay, MX-1; type: cell-based; conditions: Homo sapiens, MX1, CellTiter-Glo, 72 h, read-out: CTG MX-1 IC50
Method: as §1

BT474 = assay: Cell-Titer Glo Cell Growth Inhibition Assay, BT474; type: cell-based; conditions: Homo sapiens; CellTiter-Glo, 72 h, BT 474; read-out: CTG BT 474 IC50
Method: (§2) A549-L (human lung), BT474 (human breast), Colo 205 (human colon), H1299 (human lung), Hela (human cervix), HCT-116 (human colon), HN5 (human head and neck), HT29 (human colon), LNCap (human prostate), MCF7 (human breast), MDA-MB468 (human breast), MX-1 (human breast), RPMI 8226 (human peripheral blood), SKOV3 (human ovary) and P388 (murine leukemia) cell lines were cultured in RPMI1640 containing 10% fetal bovine serum at 37° C. in a 5% CO2 incubator. Cell lines were split into T75 flasks (Falcon #353136) two to three days prior to assay set up at density which yields approximately 70-80% confluency at time of harvest for assay. Cells were harvested using 0.25% trypsin with EDTA (Glibco/Invitrogen #25200-056), Cell counts were performed on cell suspensions using Trypan Blue exclusion staining, cells were then plated in 105 uL of culture media per well at the following densities in 96 well Costar #3916 black flat bottom plates: All human cell lines were plated at 500 cells/well. P388 were plated at 250 cells/well. All plates were placed at 5% CO2 37° C. overnight and then test compounds were added the following day. One plate of each cell type is treated with CellTiter-Glo (Promega #G7573) for a day 0 proliferation measurement and read as described below. […]

Hela = assay: Cell-Titer Glo Cell Growth Inhibition Assay, Hela; type: cell-based; conditions: Homo sapiens, CellTiter-Glo, 72 h, read-out: CTG Hela IC50
Method: as §2

HN5 = assay: Cell-Titer Glo Cell Growth Inhibition Assay, HN5; type: cell-based; conditions: Homo sapiens, CellTiter-Glo, 72 h, read-out: CTG HN5 IC50
Method: as §2

LNCap = assay: Cell-Titer Glo Cell Growth Inhibition Assay, LNCap; type: cell-based; conditions: Homo sapiens, CellTiter-Glo, 72 h, read-out: CTG LNCap IC50
Method: as §2

MCF7 = assay: Cell-Titer Glo Cell Growth Inhibition Assay, MCF7; type: cell-based; conditions: Homo sapiens, CellTiter-Glo, 72 h, read-out: CTG MCF7 IC50
Method: as §2

MDA-MB468 = assay: Cell-Titer Glo Cell Growth Inhibition Assay, MDA-MB468; type: cell-based; conditions: Homo sapiens, MDA-MB-468, CellTiter-Glo, 72 h, read-out: CTG MDA-MB468 IC50
Method: as §2

H1299 = assay: Cell-Titer Glo Cell Growth Inhibition Assay, H1299; type: cell-based; conditions: Homo sapiens, NCI-H1299, CellTiter-Glo, 72 h, read-out: CTG H1299 IC50
Method: as §2

RPMI 8226 = assay: Cell-Titer Glo Cell Growth Inhibition Assay, RPMI 8226; type: cell-based; conditions: Homo sapiens, CellTiter-Glo, 72 h, read-out: CTG RPMI 8226 IC50
Method: as §2

[1] = Intravenous pharmacokinetics in CD-1 mouse; type: in vivo; conditions: plasma, iv bolus, male CD-1 mouse, dose 1.9-7.4 mg/kg per compound (Table 3)
Method: Preliminary investigation of the intravenous pharmacokinetics of compounds of invention were carried out in fed conscious CD-1 mouse. Compounds were formulated as 1-10 mg/kg, 5 mL/kg, 1-2 mg/mL solution (Table 3). Twenty one male mice (n=3 mice per time point) (˜30 g) received dose solution by bolus injection in the tail vein. The formulation for iv were either 20% beta cyclodextrin in saline pH 3.5-6 or PEG400:ethanol:saline (50:15:35 v/v). Blood samples (˜0.4 mL) were collected terminally by cardiac puncture following anesthetization in a CO2 chamber at 2, 15, 30, 60 min, 2, 4, and 6 h following iv administration. Blood samples were collected into tubes containing heparin and placed on crushed ice promptly after collection. Plasma was collected by centrifugation, frozen and stored at about −80° C. prior to analysis. Blood or plasma concentrations were determined by LC/MS/MS equipped with an electrospray ion source and using calibration curves for the appropriate matrix. The lower level of quantitation (LLQ) was 10 ng/mL. Blood or plasma concentration-time data were analyzed by non-compartmental methods using the computer program WinNonlin Professional (version 4.1). Area under the blood or plasma concentration-time curve (AUC) was calculated using the linear trapezoidal rule for each incremental trapezoid up to Cmax, and the log trapezoidal rule for each trapezoid thereafter. The terminal elimination rate constant (λz) was derived from the log-linear disposition phase of the concentration-time curve using least-squares regression analysis with visual inspection of the data to determine the appropriate number of terminal data points for regression analysis.
Following iv administration, the total body clearance (CL) was estimated. CL was calculated by dividing the dose by AUC(0−t). The clearance values were assigned as follows. Low <30 mL/min/kg, moderate 30-70 mL/min/kg, high >70 mL/min/kg. The assignment was based on hepatic blood flow i.e. hepatic blood flow of 0-30% low, 30-70% moderate and 70-100% high. The hepatic blood flow in mouse is ˜100 mL/min/kg.

- IC50 (HCT-116): < 100 nM
- IC50 (Colo 205): < 100 nM
- IC50 (P388): < 100 nM
- IC50 (A549-L): < 100 nM
- IC50 (HT29): < 100 nM
- IC50 (SKOV3): < 100 nM
- IC50 (BT474): < 100 nM
- IC50 (Hela): < 100 nM
- IC50 (LNCap): < 100 nM
- IC50 (MCF7): < 100 nM
- IC50 (MDA-MB468): < 100 nM
- IC50 (H1299): < 100 nM
- AUC(0-t) [1]: 1410 ng·h/mL
- clearance ([1]; read-out: Plasma CL): 43.6 mL/min/kg
SMILES: CCN1CCN(CCCn2cc(-c3ccc4c(c3)ncn4-c3cc(O[C@H](C)c4ccccc4Cl)c(C(N)=O)s3)cn2)CC1 [Example 8, 3-{[(1R)-1-(2-Chlorophenyl)ethyl]oxy}-5-(5-{1-[3-(4-ethyl-1-piperazinyl)propyl]-1H-pyrazol-4-yl}-1H-benzimidazol-1-yl)-2-thiophenecarboxamide]
- IC50 (MX-1): < 100 nM
- IC50 (HN5): < 100 nM
- IC50 (RPMI 8226): < 100 nM
